Experiments:
Assay type in all cases: biochemical
[1] = molecular target: T1, Taq Δ271 F667Y (polymerase A) (Thermus aquaticus, UniProt P19821, F272M/F667Y); experiment: DNA polymerase activity assay with detergent or additive, Taq Δ271 F667Y purified without detergent
T1 construct: made in house; host or cells: E. coli
Method: (§1) DNA polymerase activity was measured by running reactions of 50 μL containing 25 mM TAPS (tris-hydroxymethyl-methylaminopropane sulfonic acid) buffer, pH 9.3 (measured at 25° C.), 50 mM KCl, 2 mM MgCl2, 1 mM 2-mercaptoethanol, 0.2 mM each of dGTP, dCTP, dTTP, 0.2 mM [α-^33P]-dATP (0.05-0.1 Ci/mmol) and 0.4 mg/mL activated salmon sperm DNA. The reaction mixture (45 μL) was pre-heated to 74° C. and diluted polymerase (5 μL) added with thorough mixing. After 10 minutes of further incubation at 74° C., the reaction was stopped by the addition of 10 μL of 60 mM EDTA and the entire mixture placed at 0° C. Acid-precipitable radioactivity was determined on an aliquot ([…]) by diluting with 1 ml of 2 mM EDTA containing 0.05 mg/ml salmon sperm DNA and adding 1 mL of 20% (w/v) trichloroacetic acid, 2% (w/v) sodium pyrophosphate (Na4P2O7 10H2O) and incubating on ice for at least 15 minutes. Precipitated DNA was collected by filtering through 2.4 cm GFC filter disks (Schleichter and Schuell) and washed 7 times with 5ml of with 1 N HCl, 0.1 M sodium pyrophosphate. The filter was placed in 3 ml of aqueous scintillation counting fluid and ^33P-specific radioactivity determined by scintillation counting.
(§2) For the assays presented in Tables 5 and 6, the polymerase was diluted 10-5000 fold in a buffer containing 25 mM Tris-HCl pH 8.0, 50 mM KCl, 1 mM 2-mercaptoethanol, and the indicated concentration of detergent or other additive. Where possible, only reactions which incorporated 20- 100 pmol of dAMP in 10 minutes were used for calculation of activity.

[2] = molecular target: T2, Taq Δ271 F667Y E681W (polymerase B) (Thermus aquaticus, UniProt P19821, E681W/F272M/F667Y); experiment: DNA polymerase activity assay with detergent or additive, Taq Δ271 F667Y E681W purified without detergent
T2 construct: made in house; host or cells: E. coli
T2 sequence (P19821 272-832 F272M/F667Y/E681W): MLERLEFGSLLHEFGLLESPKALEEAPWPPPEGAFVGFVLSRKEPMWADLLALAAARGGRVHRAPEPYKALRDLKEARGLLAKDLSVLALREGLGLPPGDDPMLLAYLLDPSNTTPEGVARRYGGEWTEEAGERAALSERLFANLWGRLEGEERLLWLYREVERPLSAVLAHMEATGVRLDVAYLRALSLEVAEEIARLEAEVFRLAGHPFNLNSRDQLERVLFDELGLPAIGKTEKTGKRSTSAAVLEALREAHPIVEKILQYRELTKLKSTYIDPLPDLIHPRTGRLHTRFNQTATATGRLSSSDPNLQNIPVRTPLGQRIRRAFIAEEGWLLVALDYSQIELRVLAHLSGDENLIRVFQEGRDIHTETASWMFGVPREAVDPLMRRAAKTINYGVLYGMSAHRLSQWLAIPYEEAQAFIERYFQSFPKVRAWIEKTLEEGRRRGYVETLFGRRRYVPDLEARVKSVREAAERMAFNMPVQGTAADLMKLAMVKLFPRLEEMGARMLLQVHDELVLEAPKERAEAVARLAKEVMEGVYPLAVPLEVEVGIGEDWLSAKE
Method: as §1, §2

[3] = molecular target: T3, Tth Δ273 F668Y (polymerase C) (Thermus thermophilus, UniProt P52028, F274M/F669Y); experiment: DNA polymerase activity assay with detergent or additive, Tth Δ273 F668Y purified without detergent
T3 construct: made in house; host or cells: E. coli
T3 sequence (P52028 274-834 F274M/F669Y): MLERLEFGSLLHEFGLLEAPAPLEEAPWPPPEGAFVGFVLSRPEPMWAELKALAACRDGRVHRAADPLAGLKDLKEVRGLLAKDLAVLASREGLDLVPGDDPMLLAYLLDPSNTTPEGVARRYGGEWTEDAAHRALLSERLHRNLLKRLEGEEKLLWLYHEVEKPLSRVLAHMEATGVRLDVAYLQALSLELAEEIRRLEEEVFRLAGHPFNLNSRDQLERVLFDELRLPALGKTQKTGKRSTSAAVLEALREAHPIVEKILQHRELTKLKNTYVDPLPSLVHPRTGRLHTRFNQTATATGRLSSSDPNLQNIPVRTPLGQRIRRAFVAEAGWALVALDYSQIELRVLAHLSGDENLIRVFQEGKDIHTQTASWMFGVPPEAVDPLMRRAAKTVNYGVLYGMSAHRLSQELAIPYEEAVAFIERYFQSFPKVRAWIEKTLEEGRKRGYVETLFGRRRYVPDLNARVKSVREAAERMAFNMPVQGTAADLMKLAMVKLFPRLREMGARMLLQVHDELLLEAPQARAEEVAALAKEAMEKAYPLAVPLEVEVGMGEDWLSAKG
Method: as §1, §2

[4] = additive final concentration 0.01% (w/v)
[5] = additive final concentration 0.05% (w/v)
[6] = additive final concentration 0.1% (w/v)
[7] = additive final concentration 0.001% (w/v) in assay reaction mixture
[8] = additive final concentration 0.2% (w/v)

T1 sequence (P19821 272-832 F272M/F667Y): as the sequence (P19821 272-832 F272M/F667Y/E681W) above, with W410E counted along it

Row | SMILES | Taq Δ271 F667Y activity relative to 0.5% each NP-40 and Tween 20 [1, 4] | Taq Δ271 F667Y activity relative to 0.5% each NP-40 and Tween 20 [1, 5] | Taq Δ271 F667Y activity relative to 0.5% each NP-40 and Tween 20 [1, 6] | Taq Δ271 F667Y E681W activity relative to 0.5% each NP-40 and Tween 20 [2, 4] | Taq Δ271 F667Y E681W activity relative to 0.5% each NP-40 and Tween 20 [2, 5] | Taq Δ271 F667Y E681W activity relative to 0.5% each NP-40 and Tween 20 [2, 6] | Tth Δ273 F668Y activity relative to 0.5% each NP-40 and Tween 20 [3, 4] | Tth Δ273 F668Y activity relative to 0.5% each NP-40 and Tween 20 [3, 5] | Tth Δ273 F668Y activity relative to 0.5% each NP-40 and Tween 20 [3, 6] | further results
1 | C[C@H](CCC(=O)[O-])[C@H]1CC[C@H]2[C@@H]3[C@H](O)C[C@@H]4C[C@H](O)CC[C@]4(C)[C@H]3C[C@H](O)[C@]12C.[Na+] [Sodium Cholate] | − − − (Activity < 20%) | − − − (Activity < 20%) | − − − (Activity < 20%) | − − − (Activity < 20%) | − − − (Activity < 20%) | − − − (Activity < 20%) | − − − (Activity < 20%) | − − − (Activity < 20%) | − − − (Activity < 20%) | –
2 | CC1=NC[C@H](O)[C@@H](C(=O)O)N1 [Hydroxyectoin] | − − − (Activity < 20%) | − − − (Activity < 20%) | – | − − − (Activity < 20%) | − − − (Activity < 20%) | – | − − − (Activity < 20%) | − − − (Activity < 20%) | – | –
3 | CCCCCCCCCCCCO[C@@H]1O[C@H](CO)[C@@H](O[C@H]2O[C@H](CO)[C@@H](O)[C@H](O)[C@H]2O)[C@H](O)[C@H]1O [n-Dodecyl-β-D-Maltoside, n-dodecyl-β-D-maltoside] | + ++ | – | – | + + + (Activity > 80% (relative to activity using 0.5% each NP-40 and Tween 20)) | – | + (Activity 60-70%) | + + + (Activity > 80% (relative to activity using 0.5% each NP-40 and Tween 20)) | – | – | Polymerase A Activity (%) ([1]; detergent 0.01% (w/v)): 98.8%; Taq Δ271 F667Y E681W activity relative to 0.5% each NP-40 and Tween 20 [2, 7]: + (Activity 60-70%); Taq Δ271 F667Y E681W activity relative to 0.5% each NP-40 and Tween 20 ([2]; additive final concentration 0.02% (w/v)): + (Activity 60-70%); Polymerase B Activity (%) ([2]; detergent 0.01% (w/v)): 92.3%; Polymerase C Activity (%) ([3]; detergent 0.01% (w/v)): 80.8%
4 | C[C@H](CCC(=O)NCCC[N+](C)(C)CCCS(=O)(=O)[O-])[C@H]1CC[C@H]2[C@@H]3[C@H](O)C[C@@H]4C[C@H](O)CC[C@]4(C)[C@H]3C[C@H](O)[C@]12C [CHAPS, 3-[(3-Cholamidopropyl)dimethylammonio]-1-propanesulfonate] | − − (Activity 20-50%) | − (Activity 50-60%) | + (Activity 60-70%) | − − − (Activity < 20%) | − − (Activity 20-50%) | − (Activity 50-60%) | − (Activity 50-60%) | − − (Activity 20-50%) | − − (Activity 20-50%) | –
5 | CC1=NCC[C@@H](C(=O)O)N1 [Ectoin] | − − − (Activity < 20%) | – | − − − (Activity < 20%) | − − − (Activity < 20%) | – | − − − (Activity < 20%) | − − − (Activity < 20%) | – | − − − (Activity < 20%) | Taq Δ271 F667Y activity relative to 0.5% each NP-40 and Tween 20 [1, 7]: − − − (Activity < 20%); Taq Δ271 F667Y E681W activity relative to 0.5% each NP-40 and Tween 20 [2, 7]: − − − (Activity < 20%); Tth Δ273 F668Y activity relative to 0.5% each NP-40 and Tween 20 [3, 7]: − − − (Activity < 20%)
6 | CCCCCCCCCC(=O)N(C)C[C@H](O)[C@@H](O)[C@H](O)[C@H](O)CO [Mega-10, D-decanoyl-N-methyl glucamide] | − − (Activity 20-50%) | + + (Activity 70-80%) | – | − − − (Activity < 20%) | + + + (Activity > 80% (relative to activity using 0.5% each NP-40 and Tween 20)) | – | + + (Activity 70-80%) | − − (Activity 20-50%) | – | Taq Δ271 F667Y activity relative to 0.5% each NP-40 and Tween 20 [1, 7]: − − − (Activity < 20%); Polymerase A Activity (%) ([1]; detergent 0.05% (w/v)): 94%; Polymerase B Activity (%) ([2]; detergent 0.05% (w/v)): 73%; Tth Δ273 F668Y activity relative to 0.5% each NP-40 and Tween 20 [3, 7]: − − (Activity 20-50%); Polymerase C Activity (%) ([3]; detergent 0.05% (w/v)): 100%
7 | CCCCCCCCC(=O)N(C)C[C@H](O)[C@@H](O)[C@H](O)[C@H](O)CO [Mega-9, Nonyl-N-methylglucamide] | − − − (Activity < 20%) | − − (Activity 20-50%) | – | − − − (Activity < 20%) | + + (Activity 70-80%) | – | − − (Activity 20-50%) | + + + (Activity > 80% (relative to activity using 0.5% each NP-40 and Tween 20)) | – | Polymerase A Activity (%) ([1]; detergent 0.05% (w/v)): 71.2%; Polymerase B Activity (%) ([2]; detergent 0.05% (w/v)): 82%; Polymerase C Activity (%) ([3]; detergent 0.05% (w/v)): 74%
8 | CCCCCCCC[N+](C)(C)CCCS(=O)(=O)[O-] [Zwittergent 3-08] | – | − − − (Activity < 20%) | − − (Activity 20-50%) | – | − − − (Activity < 20%) | − − (Activity 20-50%) | – | − − (Activity 20-50%) | − (Activity 50-60%) | Taq Δ271 F667Y activity relative to 0.5% each NP-40 and Tween 20 [1, 8]: − − (Activity 20-50%); Taq Δ271 F667Y E681W activity relative to 0.5% each NP-40 and Tween 20 [2, 8]: − − (Activity 20-50%); Tth Δ273 F668Y activity relative to 0.5% each NP-40 and Tween 20 [3, 8]: + (Activity 60-70%)
9 | CCCCCCCCO[C@@H]1O[C@H](CO)[C@@H](O)[C@H](O)[C@H]1O [Octyl Glucopyranoside, n-octyl-β-D-glucopyranoside] | − − − (Activity < 20%) | – | − − (Activity 20-50%) | − − − (Activity < 20%) | – | + + + (Activity > 80% (relative to activity using 0.5% each NP-40 and Tween 20)) | − − − (Activity < 20%) | – | + + + (Activity > 80% (relative to activity using 0.5% each NP-40 and Tween 20)) | Polymerase B Activity (%) ([2]; detergent 0.1% (w/v)): 1%; Polymerase C Activity (%) ([3]; detergent 0.1% (w/v)): 79.7%

— patent US20030134292A1, “Thermostable DNA polymerases and methods of making same” (priority 2001, published 2003)
